Patent US20200017913A1, “METHODS AND SYSTEMS FOR PREDICTING TREATMENT RESPONSES IN SUBJECTS” (PRESIDENT AND FELLOWS OF HARVARD COLLEGE, priority 2017, published 2020)

System: pancolitis in Patient #2
Experiment: Clinical treatment course of Patient #2 with pancolitis
Format: in vivo, human
Settings: Patient #2, pancolitis flare, conventional therapies
Description: Patient #2 was evaluated by a general intestinal doctor […] to receive treatment for bloody stool. […]
This included a glucocorticoid stress dose and a vancomycin treatment.
At that point, the tissue obtained in the most recent colonoscopic biospy was gene expression (RNA) profiled according to an exemplary methodology of the present disclosure. […] In this case, the drug was indigo, an over the counter supplement, also known as Qing Dai.

SMILES: CO[C@H]1/C=C/O[C@@]2(C)Oc3c(C)c(O)c4c(O)c(c5c(nc6cc(C)ccn65)c4c3C2=O)NC(=O)/C(C)=C\C=C\[C@H](C)[C@H](O)[C@@H](C)[C@@H](O)[C@@H](C)[C@H](OC(C)=O)[C@@H]1C [Rifaximin]
- clinical response to treatment: transient improvement for a couple weeks

SMILES: Sc1ncnc2nc[nH]c12 [6-mercaptopurine]
- clinical response to treatment: no improvement after 3 months

SMILES: CN[C@H](CC(C)C)C(=O)N[C@H]1C(=O)N[C@@H](CC(N)=O)C(=O)N[C@H]2C(=O)N[C@H]3C(=O)N[C@H](C(=O)N[C@H](C(=O)O)c4cc(O)cc(O)c4-c4cc3ccc4O)[C@H](O)c3ccc(c(Cl)c3)Oc3cc2cc(c3O[C@@H]2O[C@H](CO)[C@@H](O)[C@H](O)[C@H]2O[C@H]2C[C@](C)(N)[C@H](O)[C@H](C)O2)Oc2ccc(cc2Cl)[C@H]1O [vancomycin]
- clinical response to treatment: transient effect that lasted about a week

SMILES: C=CC[C@@H]1/C=C(\C)C[C@H](C)C[C@H](OC)[C@H]2O[C@@](O)(C(=O)C(=O)N3CCCC[C@H]3C(=O)O[C@H](/C(C)=C/[C@@H]3CC[C@@H](O)[C@H](OC)C3)[C@H](C)[C@@H](O)CC1=O)[C@H](C)C[C@@H]2OC [tacrolimus]
- clinical response to treatment: mild improvement but no remission
